# How the values were obtained:
# Assay in all cases: Bliss interaction score (quartile over a dose matrix) (fitness difference); higher = more antagonism (negative = synergy)
# S. pneumoniae D39V = tested on: S. pneumoniae D39V
# Method in brief: (§1)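 The Bliss score subtracts expected fitness, the product of the single-drug fitness values, from observed fitness. Fitness is plate-normalised OD595 at entry into stationary phase, relative to the robust no-drug mean and capped at 1, with single-drug fitness inferred from combinations. Summaries are quartiles over technical, biological and donor/recipient replicates.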
# S. aureus DSM 20231 = tested on: S. aureus DSM 20231
# Method in brief: as §1
# B. subtilis 168 = tested on: B. subtilis 168
# Method in brief: as §1
# S. aureus Newman = tested on: S. aureus Newman
# Method in brief: as §1
# 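Also: first quartile when negative (synergy) and third quartile when positive (antagonism).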
SMILES,Bliss interaction score (S. pneumoniae D39V),Bliss interaction score (S. aureus DSM 20231),Bliss interaction score (B. subtilis 168),Bliss interaction score (S. aureus Newman),Bliss interaction score (S. pneumoniae D39V; main component drawn),Bliss interaction score (S. aureus DSM 20231; main component drawn),Bliss interaction score (B. subtilis 168; main component drawn),Bliss interaction score (S. aureus Newman; main component drawn)
O=C(O)[C@H]1/C(=C/CO)O[C@@H]2CC(=O)N21 [Clavulanic] + COc1cc(Cc2cnc(N)nc2N)cc(OC)c1OC [Trimethoprim],0.116,-0.186,0.101,0.221,–,–,–,–
O=C(O)[C@H]1/C(=C/CO)O[C@@H]2CC(=O)N21 [Clavulanic] + COc1ccc(C[C@H](N)C(=O)N[C@H]2[C@@H](O)[C@H](n3cnc4c(N(C)C)ncnc43)O[C@@H]2CO)cc1 [Puromycin],0.0764,0.0964,0.0481,-0.0706,–,–,–,–
O=C(O)[C@H]1/C(=C/CO)O[C@@H]2CC(=O)N21 [Clavulanic] + COc1cccc2c1C(=O)c1c(O)c3c(c(O)c1C2=O)C[C@@](O)(C(=O)CO)C[C@@H]3O[C@H]1C[C@H](N)[C@H](O)[C@H](C)O1 [Doxorubicin],0.0444,0.0451,0.067,0.0836,–,–,–,–
O=C(O)[C@H]1/C(=C/CO)O[C@@H]2CC(=O)N21 [Clavulanic] + C[C@@H]1O[C@@H]1P(=O)(O)O [Fosfomycin],-0.0291,0.0474,-0.089,0.258,–,–,–,–
O=C(O)[C@H]1/C(=C/CO)O[C@@H]2CC(=O)N21 [Clavulanic] + C[C@@H](O)[C@H]1C(=O)N2C(C(=O)O)=C(SCCNC=N)C[C@H]12 [Imipenem],0.0559,0.094,0.108,-0.0736,–,–,–,–
O=C(O)[C@H]1/C(=C/CO)O[C@@H]2CC(=O)N21 [Clavulanic] + C[C@H]1COc2c(N3CCN(C)CC3)c(F)cc3c(=O)c(C(=O)O)cn1c23 [Levofloxacin],-0.197,-0.222,-0.024,0.242,–,–,–,–
O=C(O)[C@H]1/C(=C/CO)O[C@@H]2CC(=O)N21 [Clavulanic] + C[C@H]1c2cccc(O)c2C(=O)C2=C(O)[C@]3(O)C(=O)C(C(N)=O)=C(O)[C@@H](N(C)C)[C@@H]3[C@@H](O)[C@@H]21 [Doxycycline],-0.0431,-0.273,0.0656,0.268,–,–,–,–
O=C(O)[C@H]1/C(=C/CO)O[C@@H]2CC(=O)N21 [Clavulanic] + C[n+]1ccc(-c2cc[n+](C)cc2)cc1 [Paraquat],0.0522,0.0962,-0.0541,-0.0709,–,–,–,–
O=C(O)[C@H]1/C(=C/CO)O[C@@H]2CC(=O)N21 [Clavulanic] + Cc1cc(NS(=O)(=O)c2ccc(N)cc2)no1 [Sulfamethoxazol],0.0674,0.0966,0.0509,-0.0365,–,–,–,–
O=C(O)[C@H]1/C(=C/CO)O[C@@H]2CC(=O)N21 [Clavulanic] + Cc1ncc([N+](=O)[O-])n1CCO [Metronidazole],0.0632,0.0966,0.0385,-0.112,–,–,–,–
O=C(O)[C@H]1/C(=C/CO)O[C@@H]2CC(=O)N21 [Clavulanic] + Cc1onc(-c2ccccc2)c1C(=O)N[C@@H]1C(=O)N2[C@@H]1SC(C)(C)[C@@H]2C(=O)O [Oxacillin],-0.051,0.0346,0.0555,0.0727,–,–,–,–
O=C(O)[C@H]1/C(=C/CO)O[C@@H]2CC(=O)N21 [Clavulanic] + Clc1ccc(COC(Cn2ccnc2)c2ccc(Cl)cc2Cl)c(Cl)c1 [Miconazole],0.0698,0.101,0.0639,-0.0736,–,–,–,–
O=C(O)[C@H]1/C(=C/CO)O[C@@H]2CC(=O)N21 [Clavulanic] + Cn1nnc(-c2ccc(-c3ccc(N4C[C@H](CO)OC4=O)cc3F)cn2)n1 [Tedizolid],-0.0878,-0.18,0.0942,0.255,–,–,–,–
O=C(O)[C@H]1/C(=C/CO)O[C@@H]2CC(=O)N21 [Clavulanic] + N[C@@H]1CONC1=O [CycloserineD],-0.0906,0.116,0.0614,-0.0992,–,–,–,–
O=C(O)[C@H]1/C(=C/CO)O[C@@H]2CC(=O)N21 [Clavulanic] + O=C1CN(/N=C/c2ccc([N+](=O)[O-])o2)C(=O)N1 [Nitrofurantoin],0.0879,0.039,0.0868,0.102,–,–,–,–
O=C(O)[C@H]1/C(=C/CO)O[C@@H]2CC(=O)N21 [Clavulanic] + O=C(O[C@@H]1Cc2c(O)cc(O)cc2O[C@@H]1c1cc(O)c(O)c(O)c1)c1cc(O)c(O)c(O)c1 [EGCG],0.0628,0.0689,-0.0667,0.168,–,–,–,–
O=C(O)[C@H]1/C(=C/CO)O[C@@H]2CC(=O)N21 [Clavulanic] + Oc1cc(Cl)ccc1Oc1ccc(Cl)cc1Cl [Triclosan],0.0445,0.081,0.0658,-0.0656,–,–,–,–
CNC(C)C1CCC(N)C(OC2C(N)CC(N)C(OC3OCC(C)(O)C(NC)C3O)C2O)O1 (stereo unspecified) [Gentamicin] + CC1(C)S[C@@H]2[C@H](NC(=O)Cc3ccccc3)C(=O)N2[C@H]1C(=O)O [PenicillinG],–,–,–,–,0.0914,0.0582,0.0952,-0.0512
CNC(C)C1CCC(N)C(OC2C(N)CC(N)C(OC3OCC(C)(O)C(NC)C3O)C2O)O1 (stereo unspecified) [Gentamicin] + CC[C@H]1OC(=O)[C@H](C)C(=O)[C@H](C)[C@@H](O[C@@H]2O[C@H](C)C[C@H](N(C)C)[C@H]2O)[C@](C)(OC)C[C@@H](C)C(=O)[C@H](C)[C@H]2N(CCCCn3cnc(-c4cccnc4)c3)C(=O)O[C@]12C [Telithromycin],–,–,–,–,0.0542,0.0492,0.0903,0.0544

# From the supplement of paper PMC10627819
